Test results from US20230137849A1, “USE OF A COMPOUND OF THE DIURETICS CLASS FOR TREATING CANCER” (AZELEAD, priority 2017, published 2023).
Counter-ions that a name gives are not always drawn. Like-named read-outs stand apart in the source and are kept apart here.

What was measured:
[1] = system: hematopoietic stem cells CD41:GFP accumulated in the CHT; type: in vivo; conditions: for invasion of CHT by CD41:GFP cells / number of cells having colonized CHT, in words: thiazide compounds test, 10 μM or 25 μM, FIG. 9; for reduction of the number of HSCs accumulated in CHT: 24 h
Source text: A method for determining whether a molecule is capable of treating cancer in the pre-metastatic state has been described in international application WO 2011/007259. This method consists in isolating molecules capable of inhibiting the emergence of hematopoietic stem cells from the floor of the aorta without cell division, but by endothelial-to-hematopoietic transition. This emergence involves the loss of cell polarity of emerging cells, the loss of cellular junctions with these neighboring cells and the acquisition of migratory properties. This model is used because it mimics each stage of the epithelial-mesenchymal transition, the first stage of cancer metastasis. The endothelial-to-hematopoietic transition takes place in a region of the embryo called Aorta-Gonad-Mesonephros (AGM).
The colonization of hematopoietic tissues by hematopoietic stem cells mimics the appearance and/or progression of a metastatic cancerous tumor since it involves intravasation, extravasation, or the migration of HSCs following a gradient of SDF-1. The first colonized tissue is caudal hematopoietic tissue (CHT).
In order to evaluate the inhibition of the endothelial-to-hematopoietic transition, transgenic CD41:GFP (green fluorescent protein) embryos are used. HSCs express GFP under the control of the CD41 promoter, which allows them to be monitored in vivo under a fluorescence microscope. The read-out is the number of hematopoietic stem cells CD41:GFP accumulated in the AGM (mimicking the initiation of the metastatic process) and/or in the CHT of the zebrafish embryo (mimicking the progression of the metastatic process). The accumulation of CD41:GFP cells in CHT implies that each cell has made an endothelial-to-hematopoietic transition, intravasation, extravasation at the CHT level, has settled in a stromal niche and has proliferated.
The Tg transgenic zebrafish line (CD41:GFP) is maintained in accordance with the protocols described by the Ethical Committee for Animal Experimentation. The fish are kept at a temperature of 28° C. and their development stage is determined as before. The molecules are tested on zebrafish embryos at the 25 hpf stage. The embryos are decorticated and transferred to a 96-well plate (1 embryo/well) containing the test compounds in a final volume of 100 μl of the embryonic growth medium (60 μg salt for 1 ml H2O). […] The treated embryos are incubated for 24 hours in an incubator at 28° C.
The embryos are imaged with a plate reader after being anesthetized with 0.16% tricaine (ethyl-3-aminobenzoate). A quantification of the number of fluorescent cells (CD41:GFP) accumulated in the CHT is carried out.
Althiazide was tested on the zebrafish embryo according to the method previously described in the international application WO 2011/007259. This method consists in isolating molecules capable of inhibiting the emergence of hematopoietic stem cells from the floor of the aorta without cell division, but by endothelial-to-hematopoietic transition. This emergence involves the loss of cell polarity of emerging cells, the loss of cellular junctions with these neighboring cells and the acquisition of migratory properties. This model is used, in the context of the invention, because it mimics each of the stages of the epithelial-to-mesenchymal transition, the first stage of the cancerous metastasis. The endothelial-to-hematopoietic transition takes place in a region of the embryo called Aorto-Gonado-Mesonephros (AGM).
The colonization of hematopoietic tissues by hematopoietic stem cells mimics the appearance and/or progression of a metastatic tumor since it involves intravasation, extravasation, or the migration of HSCs following a gradient of SDF1. The first colonized tissue is caudal hematopoietic tissue (CHT). This physiological process is considered, in the context of the invention, as representative of the appearance and/or progression of a metastatic tumor. […]

[2] = Stability test of enantiomers: racemization followed by SFC chiral purity analysis; type: physicochemical
Description: The analysis of the chiral purity of the products to be tested was carried out by a supercritical fluid separation (SFC) technique on a Berger prep chromatograph, marketed by Thar Instruments. The mobile phase of the separation consists of a mixture of methanol added. 0.01% acetic acid and CO2 in a 20/80 ratio. The stationary phase chosen is a Chiralpak IC […] column, 250 mm by 20 mm, marketed by sigma aldrich. The injection rate is 50 ml per minute, at 40° C. under a pressure of 100 bar. The product to be analyzed is dissolved in methanol supplemented with 0.01% acetic acid, with a concentration of 1 mg/ml. 10 μl of this product is injected. The detector is a UV detector with a wavelength greater than 275 nm.
(§1) The stability tests of the enantiomers were performed by comparing the racemization and the degradation of the stored samples either at room temperature without protection against light, or under controlled temperature at 5° C. and protected from light.
(§2) The stored products are analyzed regularly (T=0, 1 h, 2 h, 3 h, 6 h, 24 h) to follow the evolution of the racemization of enantiomers.
(§3) After separation by SFC acetonitrile version 2, 1.5 mg of EV-VZWOO 1-070-005 and 2.4 mg of EV-VZWOO 1-070-006 are removed for stability testing.
(§4) Sample EV-VZWOO 1-070-005 is stored at a temperature of 5° C. under light protection conditions. Sample EV-VZWOO 1-070-006 is stored at room temperature on the bench without protection against light.

[3] = Stability test of enantiomers: degradation followed by UHPLC reverse phase purity; type: physicochemical
Description: The analysis of the reverse phase purity of the products to be tested was carried out by an ultra-high pressure liquid chromatography (UHPLC) reverse phase chromatography technique on a Waters UPLC2 liquid chromatograph, marketed by Waters. The mobile phase of the separation varies during the method according to the protocol of Table 1.
as §1, §2, §3, §4

MDA-MB-231 cells = experiment: Cytotoxicity potentiation test: MTT cell viability of MDA-MB-231 cells, doxorubicin +/- althiazide; type: cell-based, human; conditions: Homo sapiens, MDA-MB-231, 24 h, 24 h, 1% O2
Description: The cell cultures are carried out on human breast cancer epithelial cell lines MDA-MB-231 (HTB-26™), resulting from metastases present in a pleural effusion of a patient with a mammary adenocarcinoma. This line is used as a triple negative cancer cell model (no expression of ER-type nuclear estrogen receptors, nuclear progesterone receptors or overexpression of the oncogene encoding HER2 protein (Human Epidermal Growth factor Receptor-2).
The cell viability is determined via the IC50 index, measured by the MTT technique (2-(4,5-dimethyl-2-thiazolyl)-3,5-diphenyl-2H-tetrazolium bromide) (Mosmann, 1983). This colorimetric test is based on the reduction of yellow tetrazolium salts into insoluble purple formazan crystals in aqueous solution. The spectrophotometric measurement of the absorbance at 570 nm is directly proportional to the number of viable cells
The cells were seeded in 96-well plates at a density of 25,000 cells per well. After 24 h of culture at 37° C., 5% CO2 and 1% O2, the medium was renewed and supplemented with increasing doses of doxorubicin+/−althiazide. Cells were incubated for 24 h at 37° C., 5% CO2 and 1% O2. The MDA-MB-231 cells were washed and then incubated for 1 hour at 37° C. with 100 μl of a 0.5 mg/ml MTT solution prepared in culture medium. The formazan crystals were dissolved in […] and the absorbance measured at 570 nm using the Tecan Sunrise spectrophotometer. The IC50 was determined using the Graphpad Prism 5.0 software. The treatments were carried out in triplicate and the manipulation was carried out 5 times.
The tests are carried out in cell culture in 96-well plates, on the cell line MDA-MB-231. The MDA-MB-231 cells are seeded in 96-well plates at a density of 10,000 cells and incubated 24 h at 37° C., 5% CO2 and 1% O2. The medium is then renewed and added with increasing concentrations of doxorubicin+/−100 μM althiazide. The cells are incubated for an additional 24 hours at 37° C., 5% CO2 and 1% O2. Treatments were made in triplicas and the experiment was repeated 5 times.
A cell viability test is then performed according to the method described in Materials and methods.
Results are normalized to the control condition (FIG. 12)

[4] = 0 h, stored at 5° C. protected from light
[5] = 1 h, stored at 5° C. protected from light
[6] = 2 h, stored at 5° C. protected from light
[7] = 3 h, stored at 5° C. protected from light
[8] = 6 h, stored at 5° C. protected from light
[9] = 24 h, stored at 5° C. protected from light
[10] = 10 μM (FIG. 3; b188 prints 10 μl), vs reference embryos treated with DMSO
[11] = 0 h, stored at room temperature without protection against light
[12] = 1 h, stored at room temperature without protection against light
[13] = 2 h, stored at room temperature without protection against light
[14] = 3 h, stored at room temperature without protection against light
[15] = 6 h, stored at room temperature without protection against light
[16] = 24 h, stored at room temperature without protection against light

SMILES: C=CCSC[C@@H]1Nc2cc(Cl)c(S(N)(=O)=O)cc2S(=O)(=O)N1 [AZ(A)]
- invasion of CHT by CD41:GFP cells / number of cells having colonized CHT, in words [1]: further reduce
- SFC AZ(A) (%) [2, 4]: 100%
- SFC AZ(B) (%) [2, 4]: 0%
- SFC AZ(A) (%) [2, 5]: 100%
- SFC AZ(B) (%) [2, 5]: 0%
- SFC AZ(A) (%) [2, 6]: 100%
- SFC AZ(B) (%) [2, 6]: 0%
- SFC AZ(A) (%) [2, 7]: 100%
- SFC AZ(B) (%) [2, 7]: 0%
- SFC AZ(A) (%) [2, 8]: 100%
- SFC AZ(B) (%) [2, 8]: 0%
- SFC AZ(A) (%) [2, 9]: 100%
- SFC AZ(B) (%) [2, 9]: 0%
- UHPLC Pureté en phase inverse [3, 4]: 99.9%
- UHPLC Pureté en phase inverse [3, 9]: 94.9%

SMILES: Cc1ccccc1N1C(=O)c2cc(S(N)(=O)=O)c(Cl)cc2NC1C (stereo not shown) [Metolazone, reference compound]
- reduction of the number of HSCs accumulated in CHT [1, 10]: do not cause a decrease

SMILES: NS(=O)(=O)c1cc(C2(O)NC(=O)c3ccccc32)ccc1Cl (stereo not shown) [Chlortalidone, reference compound]
- reduction of the number of HSCs accumulated in CHT [1, 10]: do not cause a decrease

SMILES: C=CCSC[C@H]1Nc2cc(Cl)c(S(N)(=O)=O)cc2S(=O)(=O)N1 [AZ(B)]
- invasion of CHT by CD41:GFP cells / number of cells having colonized CHT, in words [1]: further reduce
- SFC AZ(A) (%) [2, 11]: 0.6%
- SFC AZ(B) (%) [2, 11]: 99.4%
- SFC AZ(A) (%) [2, 12]: 1.2%
- SFC AZ(B) (%) [2, 12]: 98.8%
- SFC AZ(A) (%) [2, 13]: 1.2%
- SFC AZ(B) (%) [2, 13]: 98.8%
- SFC AZ(A) (%) [2, 14]: 1.7%
- SFC AZ(B) (%) [2, 14]: 98.3%
- SFC AZ(A) (%) [2, 15]: 3%
- SFC AZ(B) (%) [2, 15]: 97%
- SFC AZ(A) (%) [2, 16]: 9.7%
- SFC AZ(B) (%) [2, 16]: 90.3%
- UHPLC Pureté en phase inverse [3, 11]: 100%
- UHPLC Pureté en phase inverse [3, 16]: 90.5%

SMILES: C[N+]1(CCCCC[N+]2(C)CCCC2)CCCC1.O=C([O-])C(O)C(O)C(=O)O.O=C([O-])C(O)C(O)C(=O)O [Pentolinium-bitartrate, reference compound]
- reduction of the number of HSCs accumulated in CHT [1, 10]: do not cause a decrease

SMILES: NS(=O)(=O)c1cc2c(cc1Cl)NCNS2(=O)=O [Hydrochlorothiazide, reference compound]
- reduction of the number of HSCs accumulated in CHT ([1]; 10 µM): 20%

SMILES: COc1cccc2c1C(=O)c1c(O)c3c(c(O)c1C2=O)C[C@@](O)(C(=O)CO)C[C@@H]3O[C@H]1C[C@H](N)[C@H](O)[C@H](C)O1 [doxorubicin, reference compound]
- IC50 (MDA-MB-231 cells; doxorubicin + 100 μM althiazide): 3.32 µM
- IC50 (MDA-MB-231 cells; doxorubicin alone): 6.02 µM

SMILES: NNc1nncc2ccccc12 [Hydralazine-hydrochloride, reference compound]
- reduction of the number of HSCs accumulated in CHT [1, 10]: do not cause a decrease
